Test results from ChEMBL document CHEMBL1145324, “Design, synthesis, and biochemical evaluation of novel cruzain inhibitors with potential application in the treatment of Chagas' disease” (Bioorg Med Chem Lett, 2006).

These molecules were tested against Cruzipain (Trypanosoma cruzi, UniProt P25779) (assay: Inhibition of Trypanosoma cruzi recombinant cruzain).
Sequence of Cruzipain (P25779 whole entry): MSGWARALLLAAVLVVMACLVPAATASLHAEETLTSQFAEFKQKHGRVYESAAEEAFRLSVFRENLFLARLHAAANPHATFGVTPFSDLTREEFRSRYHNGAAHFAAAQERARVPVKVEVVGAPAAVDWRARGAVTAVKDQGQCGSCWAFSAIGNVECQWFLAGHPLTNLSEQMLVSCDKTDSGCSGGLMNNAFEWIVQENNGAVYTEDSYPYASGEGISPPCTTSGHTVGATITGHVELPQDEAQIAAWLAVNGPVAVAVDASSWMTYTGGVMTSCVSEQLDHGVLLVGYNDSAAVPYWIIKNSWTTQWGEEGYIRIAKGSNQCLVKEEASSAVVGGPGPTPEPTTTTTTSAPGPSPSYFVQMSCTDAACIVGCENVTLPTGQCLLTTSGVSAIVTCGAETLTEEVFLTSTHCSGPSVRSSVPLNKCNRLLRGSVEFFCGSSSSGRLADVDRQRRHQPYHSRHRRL

Row | Compound | IC50
1 | NC(=S)N/N=C1\CCS(=O)(=O)c2ccccc21 | > 20 µM
2 | C/C(=N/NC(N)=S)C1=CCCc2ccccc21 | > 20 µM
3 | NC(=S)N/N=C1/CCCC(c2ccc(Br)cc2)C1 (configuration not stated) | > 7 µM
4 | NC(=S)N/N=C1\CCOc2ccccc21 | > 17 µM
5 | CC/C(=N\NC(N)=S)c1cccc(O)c1 | > 33 µM

Further lines, results first:

Row | IC50 | Compound
6 | > 5 µM | NC(=S)N/N=C1/CCC(c2ccc(Br)cc2)C1 (configuration not stated)
7 | > 16 µM | NC(=S)N/N=C1\CCc2ccccc2O1
8 | 0.8 µM | C=CC(=O)C1=CCCc2ccc(Br)cc21
9 | > 17 µM | NC(=S)N/N=C1\CCc2ccccc21
10 | 0.11 µM | NC(=S)N/N=C1\CCOc2ccc(Br)cc21
11 | > 3.64 µM | CC/C(=N\NC(N)=S)c1cccc(N)c1
12 | 1.36 µM | CC(=O)C1=CCCc2ccccc21
